Measurements taken from US20230407321A1, “METHOD TO DELIVER CHEMICALS AND NUCLEIC ACIDS TO PLANT CELLS USING CELLULOSE NANOCRYSTALS AS A CARRIER” (BOARD OF TRUSTEES OF THE UNIVERSITY OF ARKANSAS, priority 2022, published 2023).

Tests used:
[1] = tested on: N. tabacum callus culture; test: Tobacco callus growth on MS media with 2,4-D, CNC or CNC-2,4-D conjugate; assay type: cell-based, Nicotiana tabacum; details: reduced amount of 2,4-D (0.4 mg/L or equivalent), 35 days in the dark, total fresh weight
Description: To understand if CNC can deliver a plant hormone that encourages cell division to plants, CNCs conjugated with 2,4-D were added to MS medium. 2,4-D was selected for conjugation based on the extensive use of this synthetic auxin as both a plant growth regulator commonly employed in tissue cultures and as an active ingredient in commercial herbicides. At a modest dose of 1 mg/L, 2,4-D can act as a positive growth regulator and is commonly used in plant cell cultures. […] To estimate if the conjugation of CNC and 2,4-D can improve the uptake of 2,4-D, the total biomass of callus tissues cultivated on media containing 2,4-D was measured. N. tabacum calli were seeded on media containing either a standard dose of 2,4-D (1 mg/L) or a reduced dose of 2,4-D (0.4 mg/L) both conjugated and non-conjugated with CNC. […]
N. tabacum callus culture that was established by Khodakovskaya et al. was used in experiments. […] Callus growth was on the following mediums was assessed: MS medium (no 2,4-D supplement); MS medium supplemented with reduced dose of 2,4-D (0.4 mg/L); MS medium supplemented only with CNC (0.4 mg/L); MS medium supplemented with non-conjugated CNC (0.4 mg/L) and 2,4-D (0.4 mg/L); and MS medium supplemented with CNC-2,4-D conjugate (with 0.4 mg/L 2,4D). Total produced cell biomass was evaluated by measurement of total fresh weight of callus culture generated in the end of cultivation period.

[2] = tested on: Arabidopsis thaliana leaves; test: Confocal microscopy uptake of CNC-DTAF by Arabidopsis leaves; assay type: cell-based; details: free CNC or DTAF in doses comparable with amounts in the CNC-DTAF conjugate (negative controls), 4 hours
Description: To evaluate entry of synthesized CNC-dye conjugates into leaves, 12-day-old Arabidopsis thaliana seedlings were soaked with CNC-DTAF conjugate solution for 4 hours. Additionally, both protoplasts and callus cells of Nicotiana tabacum were incubated with CNC-FITC conjugate for 4 hours, as shown in FIG. 4A. All samples were imaged with confocal microscopy. The fluorescence of CNC-DTAF and CNC-FITC stained samples was digitally measured to determine the difference in signal intensity between conjugate-treated and untreated plant samples.
FIGS. 4B-F show fluorescence intensity images and measured fluorescence intensity (f) of Arabidopsis leaves incubated with water (FIG. 4B), CNC (FIG. 4C), DTAF (FIG. 4D) and CNC-DTAF conjugates (FIG. 4E), for 4 hours.
This observation indicated the ability of CNC to penetrate the cell wall and deliver dye inside the cell.
Leaves of 12-day-old A. thaliana seedlings were soaked in water (control), DTAF solution, CNC solution, or DTAF-CNC solution (1 mg/mL) for 4 hours and then intensively washed with ddH2O to fully remove residual treatments. Both freshly isolated N. tabacum protoplasts and callus cells that were cultivated for 20 days on standard Murashige and Skoog medium (MS medium) were immersed into 1 mg/mL of FITC-CNC conjugate or solution CNC and allowed to incubate for 4 hours. […]

| Structure (SMILES) | cell growth compared to medium with regular dose of 2,4-D (1 mg/L) [1] | fluorescence observed in leaves [2] |
| --- | --- | --- |
| O=C(O)COc1ccc(Cl)cc1Cl [2,4-D, 2,4-dichlorophenoxyacetic acid] | suppressed cell growth |  |
| Cl.O=C1OC2(c3ccc(O)cc3Oc3cc(O)ccc32)c2ccc(Nc3nc(Cl)nc(Cl)n3)cc21 [DTAF, 5-[(4,6-Dichlorotriazin-2-yl)amino]fluorescein hydrochloride] |  | only slight autofluorescence |
